According to BindingDB's records for doi:10.1074/jbc.M114.557629 (Weizmann Institute of Science, 2014):

Assays:
[1] = target: Sodium/potassium-transporting ATPase subunit alpha-1/beta-1 (Homo sapiens, UniProt P05023+P05026); assay: Na,K-ATPase Inhibition Assay
[2] = target: Sodium/potassium-transporting ATPase subunit alpha-2/beta-1 (Homo sapiens, UniProt P05026+P50993); assay: Na,K-ATPase Inhibition Assay

| Compound | Ki [1] | Ki [2] |
| --- | --- | --- |
| C[C@]12CC[C@H](O)C[C@H]1CC[C@@H]1[C@@H]2C[C@@H](O)[C@]2(C)[C@@H](C3=CC(=O)OC3)CC[C@]12O [CS337] | 139 nM | 130 nM |
| CC1CN(C(C)C(N)=O)CCC(O[C@@H]2[C@H](C)O[C@@H](O[C@@H]3[C@H](C)O[C@@H](O[C@H]4CC[C@@]5(C)C(CCC6C5C[C@H](O)[C@]5(C)[C@@H](C7=CC(=O)OC7)CC[C@]65O)C4)C[C@@H]3O)C[C@@H]2O)O1 (some centres not stated) [DAlaN (5)] | 232 nM | 67 nM |
| CCN1CCC(O[C@@H]2[C@H](C)O[C@@H](O[C@@H]3[C@H](C)O[C@@H](O[C@H]4CC[C@@]5(C)C(CCC6C5C[C@H](O)[C@]5(C)[C@@H](C7=CC(=O)OC7)CC[C@]65O)C4)C[C@@H]3O)C[C@@H]2O)OC(C)C1 (some centres not stated) [DEt (12)] | 53 nM | 18.5 nM |
| CC1CN(CCN)CCC(O[C@@H]2[C@H](C)O[C@@H](O[C@@H]3[C@H](C)O[C@@H](O[C@H]4CC[C@@]5(C)C(CCC6C5C[C@H](O)[C@]5(C)[C@@H](C7=CC(=O)OC7)CC[C@]65O)C4)C[C@@H]3O)C[C@@H]2O)O1 (some centres not stated) [DEtDA (10)] | 69 nM | 16.7 nM |
| COC(=O)CN1CCC(O[C@@H]2[C@H](C)O[C@@H](O[C@@H]3[C@H](C)O[C@@H](O[C@H]4CC[C@@]5(C)C(CCC6C5C[C@H](O)[C@]5(C)[C@@H](C7=CC(=O)OC7)CC[C@]65O)C4)C[C@@H]3O)C[C@@H]2O)OC(C)C1 (some centres not stated) [DGlMe (3)] | 540 nM | 128 nM |
| CC1CN(CC(=O)O)CCC(O[C@@H]2[C@H](C)O[C@@H](O[C@@H]3[C@H](C)O[C@@H](O[C@H]4CC[C@@]5(C)C(CCC6C5C[C@H](O)[C@]5(C)[C@@H](C7=CC(=O)OC7)CC[C@]65O)C4)C[C@@H]3O)C[C@@H]2O)O1 (some centres not stated) [DGly (2)] | 124 nM | 25 nM |
| CC1CN(CC(N)=O)CCC(O[C@@H]2[C@H](C)O[C@@H](O[C@@H]3[C@H](C)O[C@@H](O[C@H]4CC[C@@]5(C)C(CCC6C5C[C@H](O)[C@]5(C)[C@@H](C7=CC(=O)OC7)CC[C@]65O)C4)C[C@@H]3O)C[C@@H]2O)O1 (some centres not stated) [DGlyN (4)] | 152 nM | 20.4 nM |
| CC1CN(C)CCC(O[C@@H]2[C@H](C)O[C@@H](O[C@@H]3[C@H](C)O[C@@H](O[C@H]4CC[C@@]5(C)C(CCC6C5C[C@H](O)[C@]5(C)[C@@H](C7=CC(=O)OC7)CC[C@]65O)C4)C[C@@H]3O)C[C@@H]2O)O1 (some centres not stated) [DMe (11)] | 101 nM | 15.6 nM |
| CC1CN(CC(F)(F)F)CCC(O[C@@H]2[C@H](C)O[C@@H](O[C@@H]3[C@H](C)O[C@@H](O[C@H]4CC[C@@]5(C)C(CCC6C5C[C@H](O)[C@]5(C)[C@@H](C7=CC(=O)OC7)CC[C@]65O)C4)C[C@@H]3O)C[C@@H]2O)O1 (some centres not stated) [DMeCF3 (13)] | 199 nM | 44 nM |
| CC1CN(O)CCC(O[C@@H]2[C@H](C)O[C@@H](O[C@@H]3[C@H](C)O[C@@H](O[C@H]4CC[C@@]5(C)C(CCC6C5C[C@H](O)[C@]5(C)[C@@H](C7=CC(=O)OC7)CC[C@]65O)C4)C[C@@H]3O)C[C@@H]2O)O1 (some centres not stated) [DOH (1)] | 311 nM | 134 nM |
| CC1CN(CCC(N)=O)CCC(O[C@@H]2[C@H](C)O[C@@H](O[C@@H]3[C@H](C)O[C@@H](O[C@H]4CC[C@@]5(C)C(CCC6C5C[C@H](O)[C@]5(C)[C@@H](C7=CC(=O)OC7)CC[C@]65O)C4)C[C@@H]3O)C[C@@H]2O)O1 (some centres not stated) [DPrN (9)] | 249 nM | 47 nM |
| CC1CN(NC(N)=O)CCC(O[C@@H]2[C@H](C)O[C@@H](O[C@@H]3[C@H](C)O[C@@H](O[C@H]4CC[C@@]5(C)C(CCC6C5C[C@H](O)[C@]5(C)[C@@H](C7=CC(=O)OC7)CC[C@]65O)C4)C[C@@H]3O)C[C@@H]2O)O1 (some centres not stated) [DSCar (8)] | 102 nM | 20 nM |
| CC1CN(C(CO)C(=O)O)CCC(O[C@@H]2[C@H](C)O[C@@H](O[C@@H]3[C@H](C)O[C@@H](O[C@H]4CC[C@@]5(C)C(CCC6C5C[C@H](O)[C@]5(C)[C@@H](C7=CC(=O)OC7)CC[C@]65O)C4)C[C@@H]3O)C[C@@H]2O)O1 (some centres not stated) [DSer (6)] | 316 nM | 145 nM |
| CC1CN(C(CO)C(N)=O)CCC(O[C@@H]2[C@H](C)O[C@@H](O[C@@H]3[C@H](C)O[C@@H](O[C@H]4CC[C@@]5(C)C(CCC6C5C[C@H](O)[C@]5(C)[C@@H](C7=CC(=O)OC7)CC[C@]65O)C4)C[C@@H]3O)C[C@@H]2O)O1 (some centres not stated) [DSerN (7)] | 242 nM | 144 nM |
| CC1CN(C(CC(=O)O)CC(=O)O)CCC(O[C@@H]2[C@H](C)O[C@@H](O[C@@H]3[C@H](C)O[C@@H](O[C@H]4CC[C@@]5(C)C(CCC6C5C[C@H](O)[C@]5(C)[C@@H](C7=CC(=O)OC7)CC[C@]65O)C4)C[C@@H]3O)C[C@@H]2O)O1 (some centres not stated) [DbisGly (14)] | 80 nM | 34.9 nM |
| C[C@H]1O[C@@H](O[C@H]2[C@@H](O)C[C@H](O[C@H]3CC[C@@]4(C)[C@H](CC[C@@H]5[C@@H]4C[C@@H](O)[C@]4(C)[C@@H](C6=CC(=O)OC6)CC[C@]54O)C3)O[C@@H]2C)C[C@H](O)[C@@H]1O [Dbis] | 196 nM | 74 nM |
